Where two headings read alike, the source gives them in different places.
Key:
KMT9 [1] = molecular target: T1, KMT9 (Homo sapiens, UniProt Q9Y5N5); experiment: Thermal shift assay (SyproOrange); type: binding; settings: read-out: ΔTm
T1 sequence (Q9Y5N5 1-214): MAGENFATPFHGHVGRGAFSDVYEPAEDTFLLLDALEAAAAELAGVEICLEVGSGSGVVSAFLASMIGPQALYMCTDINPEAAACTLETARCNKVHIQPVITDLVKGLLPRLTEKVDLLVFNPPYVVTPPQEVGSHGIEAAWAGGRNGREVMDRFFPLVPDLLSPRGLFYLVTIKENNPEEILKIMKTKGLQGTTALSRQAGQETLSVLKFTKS
T1 sequence (Q9UI30 1-125 partner): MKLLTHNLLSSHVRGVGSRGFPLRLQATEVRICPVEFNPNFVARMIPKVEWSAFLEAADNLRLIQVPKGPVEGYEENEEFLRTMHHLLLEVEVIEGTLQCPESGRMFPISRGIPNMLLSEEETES
Protocol: The assay was carried out in 96-well Hard-Shell PCR plates (Bio-Rad Laboratories Inc.). […] Final assay concentrations were set to 500 μM of compound 8, 2 μM KMT9 and 5× SO. One μL of 20× compound, 4 μL of assay buffer, 10 μL of 2× KMT9 and 5 μL of 4× SO were pipetted. For the no-compound control, 20× inhibitor stock was replaced by DMSO. The final volume was 20 μL. The plate was spun down at 700 rpm for 1 min using a Hettich UNIVERSAL 320 centrifuge and incubated at 25 °C, shaking at 600 rpm. After incubation, the plate was spun down for 1 min at 700 rpm and measurement was conducted using a CFX96 Touch Real-Time PCR Detection System (Bio-Rad Laboratories Inc.). The plate was equilibrated at 20 °C for 4 min and then heated stepwise at a rate of 1 °C per 15 s until 95 °C. After every step, fluorescence was measured in FRET mode. Calculation of melting points was conducted by a Boltzman sigmoidal model using GraphPad Prism 7.0.

KMT9 [2] = molecular target: T1, KMT9; experiment: KMT9 methyltransferase inhibition assay (3H-SAM, ETF1 substrate)
Protocol: The assay was carried out in 0.5 mL Eppendorf tubes in duplicates. Assay buffer consisted of 50 mM BTP, 1 mM MgCl2, 1 mM DTT and 0,01% Triton-X100 at a pH of 8.5 (adjusted using 1 M HCl and 1 M NaOH). 20X inhibitor stock (in DMSO), 2× enzyme stock and 4× substrate mix (both in assay buffer) were prepared. The substrate mix consisted of Tritium-labeled S-adenosylmethionine (3H-SAM), S-adenosylmethionine (SAM) and eukaryotic peptide chain release factor subunit1 (, residues 140–275) (ETF1). Final assay concentrations were set to 25 nM KMT9, 0.3 μM 3H-SAM, 0.7 μM SAM and 5 μM ETF1. […] Five μL of 4× substrate mix was added to initiate the reaction. The final reaction volume was 20 μL. For the positive control, the compound was replaced by DMSO; for the negative control, the compound was replaced by DMSO and KMT9 was replaced by assay buffer. The reaction mix was incubated in an Eppendorf thermomixer comfort at 30 °C for 2 h, shaking at 300 rpm. The reaction was quenched using 5 μL 50% trichloroacetic acid (TCA) and incubated at 25 °C for 5 min. Twenty-two μL of the mixture was transferred into 96-well MultiScreenHTS FB filter plates (Merck KGaA, Darmstadt, Germany) and washed four times with 10% TCA and two times with 100% ethanol. The plate was dried overnight, the filters were transferred into individual 6 mL Pony Vials (PerkinElmer Inc., Waltham, MA, USA) and incubated in 3 mL of Ultima Gold scintillation cocktail (PerkinElmer Inc., Waltham, MA, USA) for 30 min. The scintillation signal was measured for 3× 1 min using TriCarb 2910 TR (PerkinElmer) scintillation counter in 3H CPM mode (LL: 0, UL: 18.6).
Inhibition was calculated using the following formula: Inhibition[%]=(1−xc−xpos/xpos−xneg)×100
With xc: signal of compound, xpos: mean signal of positive control, xneg: mean signal of negative control. Data fitting was carried out by GraphPad 7.0 using nonlinear fit ([Inhibitor] vs response – variable slope (four parameters)).

KMT9 [3] = molecular target: T1, KMT9; experiment: Microscale thermophoresis (MST) binding assay
Protocol: To determine the binding affinity of the compound and KMT9, microscale thermophoresis (MST) analysis was performed with a NanoTemper Monolith NT.115 instrument (NanoTemper Technologies GmbH). KMT9 was labeled with a RED-Tris-NTA labeling kit (NanoTemper Technologies GmbH) based on the manufacturer’s instructions. Buffer including 25 mM HEPES (pH 7.5), 100 mM NaCl, 1 mM DTT and 0.05% Tween was used for the reaction buffer. Varying concentrations of compounds were titrated against His-tag labeled KMT9 proteins (20 nM). Samples were loaded into standard Capillaries (NanoTemper Technologies GmbH) and MST measurements were performed using 40% MST power and 100% LED power. For each set of binding experiments, MST measurement was carried out with Binding Affinity module in MO. Control program under Nano-RED excitation. Data sets were processed with the MO.Affinity Analysis software (NanoTemper Technologies GmbH).

[4] = MST, binding to KMT9, read-out: Kd
[5] = thermal shift, 2 μM KMT9, 500 μM compound

| Compound | ΔTm at 500 µM (KMT9 [1]) [°C] | IC50 (KMT9 [2]) [µM] | Kd (KMT9 [3]; [4]) [µM] | Reduction of potency compared to compound 2d (KMT9 [3]; vs compound 2d) [fold] | ΔTm at 500 µM (KMT9 [1]; [5]) [°C] | Kd (KMT9 [3]) [µM] | Decrease of binding affinity compared to compound 7b (KMT9 [3]; Kd ratio vs compound 7b) |
| --- | --- | --- | --- | --- | --- | --- | --- |
| CN(C)CCCN(CC[C@H](N)C(=O)O)C[C@H]1O[C@@H](n2cnc3c(N)ncnc32)[C@H](O)[C@@H]1O [compound 3b, reference compound] | 9.55 | 6 | 1 | ~100 |  |  |  |
| CNc1ncnc2c1ccn2[C@@H]1C[C@H](CN(CCCNCCc2ccc(Oc3ccccc3)cc2)CC[C@H](N)C(=O)O)[C@@H](O)[C@H]1O [compound 7a, (S)-2-Amino-4-((((1R,2R,3S,4R)-2,3-dihydroxy-4-(4-(methylamino)-7H-pyrrolo[2,3-d]pyrimidin-7-yl)cyclopentyl)methyl)(3-((4-phenoxyphenethyl)amino)propyl)amino) Butanoic acid] |  | 0.6 | 0.07 |  | 17.5 |  |  |
| Nc1ncnc2c1ncn2[C@@H]1O[C@H](CN(CCCNCc2ccccc2)CC[C@H](N)C(=O)O)[C@@H](O)[C@H]1O [compound 5a, (S)-2-Amino-4-((((2R,3S,4R,5R)-5-(6-amino-9H-purin-9-yl)-3,4-dihydroxytetrahydrofuran-2-yl)methyl)(3-(benzylamino)propyl)amino)butanoic acid] | 19.6 | 0.1 |  |  |  | 0.04 |  |
| Nc1ncnc2c1ncn2[C@@H]1O[C@H](CN(CC[C@H](N)C(=O)O)CC[C@H](N)c2ccccc2)[C@@H](O)[C@H]1O [compound 2a] | 10.6 | 3 |  |  |  | 15 |  |
| NCCCN(C[C@H]1C=CCN1)C[C@H]1O[C@@H](n2cnc3c(N)ncnc32)[C@H](O)[C@@H]1O [compound 4f, (2R,3R,4S,5R)-2-(6-Amino-9H-purin-9-yl)-5-(((3-aminopropyl)(((R)-2,5-dihydro-1H-pyrrol-2-yl)methyl)amino)methyl)tetrahydrofuran-3,4-diol] | -0.52 | 253 |  |  |  | > 500 |  |
| C[C@@H](CN(CCCN)C[C@H]1O[C@@H](n2cnc3c(N)ncnc32)[C@H](O)[C@@H]1O)N1CCC(O)CC1 [compound 4e, (2R,3R,4S,5R)-2-(6-Amino-9H-purin-9-yl)-5-(((3-aminopropyl)((s)-2-(4-hydroxypiperidin-1-yl)propyl)amino)methyl)tetrahydrofuran-3,4-diol] | 2.78 | > 500 | 50 |  |  |  |  |
| Nc1ncnc2c1ncn2[C@@H]1O[C@H](CN(CC[C@H](N)C(=O)O)CC[C@H](N)C(=O)O)[C@@H](O)[C@H]1O [compound 1, (2S,2’S)-4,4’-((((2R,3S,4R,5R)-5-(6-Amino-9H-purin-9-yl)-3,4-dihydroxytetrahydrofuran-2-yl)methyl)azanediyl)bis(2-aminobutanoic Acid)] |  |  | 6.8 |  |  |  |  |
| NCCCN(CCC(N)C(F)(F)F)C[C@H]1O[C@@H](n2cnc3c(N)ncnc32)[C@H](O)[C@@H]1O (stereo partly drawn) [compound 4c, (2R,3S,4R,5R)-2-(((3-Amino-4,4,4-trifluorobutyl)(3-aminopropyl)amino)methyl)-5-(6-amino-9H-purin-9-yl)tetrahydrofuran-3,4-diol] |  | 500 | > 500 |  | 3.43 |  |  |
| Nc1ncnc2c1ncn2[C@@H]1O[C@H](CN(CCCNCCc2ccccc2)CC[C@H](N)C(=O)O)[C@@H](O)[C@H]1O [compound 5b, (S)-2-Amino-4-((((2R,3S,4R,5R)-5-(6-amino-9H-purin-9-yl)-3,4-dihydroxytetrahydrofuran-2-Yyl)methyl)(3-(phenethylamino)propyl)amino)butanoic acid] | 20.9 | 0.034 |  |  |  | 0.01 |  |
| NCCCN(CCC(N)C(F)F)C[C@H]1O[C@@H](n2cnc3c(N)ncnc32)[C@H](O)[C@@H]1O (stereo partly drawn) [compound 4b, (2R,3S,4R,5R)-2-(((3-Amino-4,4-difluorobutyl)(3-aminopropyl)amino)methyl)-5-(6-amino-9H-purin-9-yl)tetrahydrofuran-3,4-diol] | 2.86 | 200 |  |  |  | 100 |  |
| Nc1ncnc2c1ncn2[C@@H]1O[C@H](CSCC[C@H](N)C(=O)O)[C@@H](O)[C@H]1O [SAH, S-adenosyl-L-homocysteine, reference compound] |  |  | 10.9 |  |  |  |  |
| Nc1ncnc2c1ncn2[C@@H]1O[C@H](CN(CCCNCCCc2ccccc2)CC[C@H](N)C(=O)O)[C@@H](O)[C@H]1O [compound 5c, (S)-2-Amino-4-((((2R,3S,4R,5R)-5-(6-amino-9H-purin-9-yl)-3,4-dihydroxytetrahydro-furan-2-yl)methyl)(3-((3-phenylpropyl)amino)propyl)amino)butanoic acid] | 21.3 | 0.064 |  |  |  | 0.02 |  |
| CNc1ncnc2c1ccn2C1CC(CN(CCCOCCc2ccc(Oc3ccc(Cl)cc3)c(F)c2)CCC(N)C(=O)O)C(O)C1O [compound 7b-N, (S)-2-Amino-4-((3-(4-(4-chlorophenoxy)-3-fluorophenethoxy)propyl)(((1R,2R,3S,4R)-2,3-dihydroxy-4-(4-(methylamino)-7H-pyrrolo[2,3-d]pyrimidin-7-yl)cyclopentyl)methyl)amino)butanoic Acid] |  |  | ~56 |  |  |  | more than 1000 fold |

From paper PMC12257510, “Structure-Guided Design of a KMT9 Inhibitor Prodrug with Cellular Activity” (Journal of Medicinal Chemistry, 2025)
